Reference: PMC10339762, “Fragment-based drug discovery of small molecule ligands for the human chemokine CCL28” (SLAS discovery : advancing life sciences R & D, 2023)

Key:
Format in all cases: binding
CCL28(4-108) [1] = molecular target: T1, CCL28(4-108) (Homo sapiens, UniProt Q9NRJ3); experiment: Single-fragment 1H-15N HSQC titration, chemical shift mapping; conditions: 6 mM fragment, 50 μM CCL28(4-108)
T1 construct: Uniformly ^15N-labeled CCL28(1-108) and CCL28(4-108) proteins were expressed using a previously described SUMO fusion construct; Smt (SUMO) fusion tag (N, cleaved yes); made in house; host or cells: E. coli BL21(DE3)
T1 sequence (Q9NRJ3 23-127): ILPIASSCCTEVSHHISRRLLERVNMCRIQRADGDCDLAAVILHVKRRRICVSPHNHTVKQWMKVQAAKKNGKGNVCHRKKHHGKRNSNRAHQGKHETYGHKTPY

CCL28(4-108) [2] = molecular target: T1, CCL28(4-108); experiment: Dual-fragment NMR titration; conditions: one fragment titrated 0–3 mM into 3 mM of the other, 50 μM CCL28
CCL28(1-108) = molecular target: T2, CCL28(1-108) (Homo sapiens, UniProt Q9NRJ3); experiment: 1H-15N HSQC NMR titration of repurchased fragment hits (hit validation); conditions: for Kd: 50 μM CCL28(1-108), fragment 0–6 mM, HSQC at 25 °C, estimated by nonlinear fitting, read-out: Kd (fitting of titration-derived chemical shift perturbation data)
T2 construct: Uniformly ^15N-labeled CCL28(1-108) and CCL28(4-108) proteins were expressed using a previously described SUMO fusion construct; Smt (SUMO) fusion tag (N, cleaved yes); made in house; host or cells: E. coli BL21(DE3)
T2 sequence (Q9NRJ3 20-127): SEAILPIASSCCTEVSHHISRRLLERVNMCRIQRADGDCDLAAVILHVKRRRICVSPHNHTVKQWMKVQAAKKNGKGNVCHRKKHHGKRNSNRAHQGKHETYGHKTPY
Description: NMR samples for fragment screening and titration experiments were prepared using a liquid handling robot designed for and dedicated to sample mixing and loading of NMR sample tubes as previously described, except that 1.7 mm sample tubes were used with sample volumes of 60 μL. All ^1H,^15N HSQC spectra were acquired at 25 °C and 600 MHz on a Bruker Avance III HD NMR spectrometer equipped with a 1.7 mm TCI CryoProbe and SampleJet sample handling robot. NMR data processing was performed in an automated manner, as previously described. Custom Python scripts were used to automate the movement of NMRPipe processing scripts to each experiment directory, run the NMRPipe processing scripts, transfer transformed spectra to a processed data directory, compute HSQC difference spectra, generate HSQC overlay and HSQC difference contour plot files for each sample, perform principal component analysis calculations and K-means cluster analysis on all spectra acquired in each round of fragment screening.
Fragment screening was conducted against 50 μM ^15N-CCL28(1-108) in an iterative multiplexed manner as previously described, except that each chemical fragment was present at a concentration of 500 μM instead of 1mM. A collection of 2,678 fragments comprised of the Core 1000 (Maybridge), Zenobia 1 (Zenobia), L5700 (Targetmol), and 3D Shape Diverse (Enamine) libraries were arranged into 12-plex groups for the first iteration. A consistent buffer was used across all NMR samples (50 mM dMES, 150 mM NaCl, 3% v/v DMSO, 0.02% w/v sodium azide, 5% v/v deuterium oxide) for 12-plex, 3-plex, and single compound screening rounds. Principal component analysis (PCA) and difference intensity analysis (DIA) comparisons of a reference (DMSO only) spectrum with each screening spectrum were used to identify potential hits, which were then verified by manual inspection of HSQC overlays and HSQC difference spectra, as previously described. Candidate hits were repurchased and subjected to ^1H-^15N HSQC titration with 50 μM CCL28(1-108) at concentrations ranging from 0–6 mM. Repurchased compound identities were confirmed via 1D ^1H NMR, and purity was determined to be at least 90% via natural abundance ^1H-^13C HSQC. For a subset of validated hits, CCL28 binding was measured in combination with a second fragment, each of which was titrated to a maximum concentration of 3 mM.
Because hits were identified in the primary screen from 2D NMR spectra acquired at a single fragment concentration, evaluating each candidate in terms of CCL28 binding affinity and specificity was essential. HSQC titrations up to a final concentration of 6 mM were performed using repurchased material for each candidate hit. Using the same chemical shift mapping approach employed for sTyr binding (Fig. 1B & C), titration-derived chemical shift perturbation data was used to ascertain and visualize the residues most affected by the addition of each compound. Fragment binding affinities were estimated by nonlinear fitting as previously described. […] While Kd value estimates ranged from ~1 mM to > 10 mM (Fig. 3), the other 13 fragments reproduced HSQC perturbations observed in the primary NMR screen, and PCA clustered them in two groups distinct from the non-hits. […] Four fragments mainly affected residues […], R21, E25, and the side chain of Q69 located in a cleft between the N-loop and α-helix. Another eight fragments largely perturbed residues in the sY binding cleft (Fig. 1C), including I53, which is analogous to V49 of CXCL12, a critical residue in facilitating binding interactions with sY21 of its receptor CXCR4 [18].

Kd (CCL28(1-108))	Structure (SMILES)	further results
> 10 mM	Cc1cccc(C(=O)O)c1O [ZT0733]	
> 10 mM	O=C(O)/C=C/c1ccccc1 [ZT0754]	
2.3 mM	O=C(O)c1ccc2c3c(cccc13)CC2 [ZT0784]	Binding site by chemical shift mapping (CCL28(1-108); HSQC titration up to 6 mM, two potential sites (N-loop/α-helix cleft; sY binding cleft)): perturbed residues located in both sites
> 10 mM	O=C(O)c1cc2ccccc2[nH]1 [ZT1669]	

The remaining lines, values behind:

Structure (SMILES)	Kd (CCL28(1-108))	further results
O=C(O)c1ccc(-c2ccccc2)s1 [CC10501]	6.6 mM	Residues with largest / strong fragment-induced peak shifts (CCL28(4-108) [1]): I53, S20, and R21, CC10501 additionally yielded strong peak shifts for E25, Q69, and M66; Simultaneous binding of fragment pair (CCL28(4-108) [2]): can occupy adjoining subsites within the same cleft on the CCL28 surface
O=C(O)c1ccc(-c2cccs2)s1 [CC146001]	3.2 mM	
Cc1csc(C(C#N)C(=O)c2ccccc2F)n1 (centres unmarked) [E2C02.03 C11.09C10]	> 10 mM	
Cc1cc(Cl)ccc1S(=O)(=O)Nc1ccon1 [E2C04.04 C11.12C09]	> 10 mM	
OCCCCn1cnc2cc(Cl)c(Cl)cc21 [SPB07625]	0.85 mM	Simultaneous binding of fragment pair (CCL28(4-108) [2]): can occupy adjoining subsites within the same cleft on the CCL28 surface
O=C(O)c1cc2cc(C(F)(F)F)ccc2[nH]1 [TA01.A04.02A03]	> 10 mM	
Sc1nc2cc(Cl)ccc2o1 [ZT0010]	1.2 mM	
O=C(O)c1cc2cc(F)ccc2[nH]1 [ZT0073]	> 10 mM	
O=c1cc(O)c2ccccc2o1 [ZT0262]	> 10 mM	
